Assay results taken from patent US11358931B2, “Selective androgen receptor modulators (SARMs) and uses thereof” (priority 2007, dated 2022).
“Also recorded” adds a separate entry of the source. Read-outs that look alike come from different tables or passages of the source.

Columns and labels:
[1] = Pharmacokinetics in ovariectomized female rats (plasma, Day 14); type: in vivo, rat; conditions: OVX female rats; for AUC: female, po; for AUC / Cmax / Tmax: rat, plasma, PO
Protocol: (§1) After the 14th dose, approximately 250 μL venous blood was collected via percutaneous jugular puncture from the rats at 0, 0.5, 1, 2, 4 and 6 hours post-dosing. The blood samples were collected into lithium-heparin tubes (Becton Dickinson, Franklin Lakes, N.J.). Plasma fractions were collected for pharmacokinetic analysis. Approximately 24 hours after the last dose, rats were sacrificed by cardiac exsanguination, and blood was collected into serum separator tubes (Becton Dickinson), and the gastrocnemius muscle, plantaris muscle, uterus, clitoral glands, clitoris and inguinal fat pads were isolated, blotted and weighed individually. Uterine weight measurements can be inaccurate in surgically ovariectomized rats due to the potential loss of uterine tissue at the tips of the uterine horns during removal of the ovaries. To minimize this variability, the length of the uterine horns was measured and the uterine weight was reported normalized to uterine length. The left femur and lumbar vertebra L5 were wrapped in saline-soaked gauze and stored at −20° C. for biochemical analysis. The right femur and lumbar vertebrae L3-L4 were collected and stored in 70% ethanol for histomorphometry. The right tibia was collected in formalin for histological analysis. The left tibia was collected on dry ice and stored at −20° C. for measurement of alkaline phosphatase activity.
Pharmacokinetic analysis was performed as described in Example 13.

[2] = test system: ovariectomized mature female rat; assay: In vivo assay, ovariectomized mature female rats (12 weeks); conditions: for uterine weight to length ratio versus OVX controls: 0.03-3 mg/kg/day PO; for uterine weight to length ratio versus sham levels: high dose (3 mg/kg); for increase of gastrocnemius muscle mass / mean change in body weight: maximally effective dose 0.3 mg/kg PO; for clitoral weight, activity versus testosterone / clitoral gland weight versus sham: mid dose (0.3 mg/kg); for clitoral gland weight versus sham: 0.3 mg/kg
From the text: In animal models of osteoporosis, androgens increase bone density and strength in male rats (Wakely et al., J Bone & Mineral Research 6: 325-330 (1991) and Vandenput et al., Calcified Tissue International 70: 170-175 (2002)) and female rats (Tobias et al., Am J Physiology 267: E853-E859 (1994) and Coxam et al., Bone 19: 107-114 (1996)). The ovariectomized mature female rat model was used to assess the effects of orally administered compounds provided herein, such as Compound 102, on bone as well as other efficacy and side-effect endpoints including muscle mass, fat mass and clitoral gland weight.
In this assay, approximately three-month old rats were acclimated in a vivarium for one week. After acclimation, rats were anesthetized with Avertin and the ovariectomy (OVX) was performed using the dorsal approach. For the sham procedure, the surgical procedure was conducted per protocol, and the ovaries exteriorized but not removed. After recovery, no further experimental manipulations were performed for seven weeks, at which point the rats were scanned by dual energy x-ray absorptiometry and sorted into experimental groups based upon femoral bone mineral content (BMC). Three dosages of Compound 102 were tested (0.03, 0.3 and 3 mg/kg/day PO). For comparison, ostarine, a known non-steroidal SARM, was tested at the same dosages (0.03, 0.3 and 3 mg/kg/day PO). In addition, reference compounds estradiol and testosterone were administered. Estradiol was administered subcutaneously to one ovariectomized group at a dose of 0.1 mg/kg/day and testosterone propionate was administered subcutaneously to another ovariectomized group at a dose of 1 mg/kg/day.
Treatment continued once daily for 12 weeks, at which point animals were euthanized and tissues were collected for further analysis. Animals received subcutaneous injections of fluorochrome markers for bone histomorphometric analysis. Alizarian Red S was prepared as a 3% solution and given at a dose of 30 mg/kg at the time of the baseline scan. Calcein was administered 10 days and 3 days prior to necropsy.
as §1
Compound 102 and ostarine individually were formulated in a solution containing 5% Tween-80 polysorbate, 90% PEG-400 polyethylene glycol, and 5% polyvinylpyrrolidone K30. The mixture was stirred and sonicated in a water bath for 30 minutes until the compound dissolved into a solution. After sonication, 1% carboxymethyl cellulose (CMC) in water was added to the solution in a 9:1 ratio (9 parts CMC/water solution to 1 part PEG-400/Tween-80/PVP). Compound 102 and ostarine were administered orally in a volume of 4 mL/kg. […]

[3] = 0.03 mg/kg, Day 14, 0.03 mg/kg, mean ± SD of n = 4, read-out: AUC6
[4] = 0.03 mg/kg, Day 14, 0.03 mg/kg, n = 4, 0 hr conc. substituted for 24 hr, read-out: AUC24
[5] = 0.3 mg/kg, Day 14, 0.3 mg/kg, mean ± SD of n = 4, read-out: AUC6
[6] = 0.3 mg/kg, Day 14, 0.3 mg/kg, n = 4, 0 hr conc. substituted for 24 hr, read-out: AUC24
[7] = 3 mg/kg, Day 14, 3 mg/kg, mean ± SD of n = 4, read-out: AUC6
[8] = 3 mg/kg, Day 14, 3 mg/kg, n = 4, 0 hr conc. substituted for 24 hr, read-out: AUC24
[9] = Day 14, 0.03 mg/kg, mean ± SD of n = 4
[10] = Day 14, 0.3 mg/kg, mean ± SD of n = 4
[11] = Day 14, 3 mg/kg, mean ± SD of n = 4
[12] = OVX rats, high dose (3 mg/kg/day PO)
[13] = OVX rats, low dose (0.03 mg/kg/day PO)
[14] = OVX rats, 12 weeks, 3-point bending

SMILES | AUC [1, 3] [ng·h/mL] | AUC [1, 4] [ng·h/mL] | AUC [1, 5] [ng·h/mL] | AUC [1, 6] [ng·h/mL] | AUC [1, 7] [ng·h/mL] | AUC [1, 8] [ng·h/mL] | Cmax [1, 9] [ng/mL] | Tmax [1, 9] [min] | Cmax [1, 10] [ng/mL] | Tmax [1, 10] [min] | Cmax [1, 11] [ng/mL] | Tmax [1, 11] [min] | uterine weight to length ratio versus OVX controls [2] | uterine weight to length ratio versus sham levels ([2]; OVX rats) | clitoral gland weight [2, 12] | clitoral weight [2, 12] | clitoral gland weight [2, 13] | clitoral weight [2, 13] | uterine weight to length ratio versus sham operated controls [2, 13] | increase of gastrocnemius muscle mass ([2]; OVX rats) [%] | further results
N#Cc1ccc(N2CCC[C@@H]2[C@@H](O)C(F)(F)F)cc1C(F)(F)F [Compound 102, R,R-4-(2-(1-Hydroxyl-2,2,2-trifluoroethyl)-pyrrolidinyl)-2-trifluoromethyl-benzonitrile] | 56 ± 56 | 119 ± 90 | 51 ± 41 | 229 ± 289 | 404 ± 199 | 880 ± 326 | 39 ± 28 | 210 ± 114 | 40 ± 34 | 30 ± 24 | 207 ± 87 | 30 | increased uterine weight to length ratio above estrogen deficient OVX controls in a dose dependent manner | significantly (P<0.01) increased above sham levels | increased clitoral gland weight | significantly increased clitoral weight | Neither Compound 102 nor ostarine affected | did not affect clitoral weight | significantly (P<0.01) less than sham operated controls | 17 | increase of uterine weight to length ratio compared with ostarine ([2]; OVX rats, low and mid dose, P<0.01): significantly less than ostarine; mean change in body weight ([2]; OVX rats): +66 grams; clitoral weight, activity versus testosterone ([2]; OVX rats): significantly less activity versus testosterone; clitoral gland weight versus sham ([2]; OVX rats): only slightly above the sham level; also recorded: did not quite achieve statistical significance versus sham; uterine weight to length ratio versus sham operated controls ([2]; OVX rats, mid dose (0.3 mg/kg/day PO)): significantly (P<0.01) less than sham operated controls
C[C@](O)(COc1ccc(C#N)cc1)C(=O)Nc1ccc(C#N)c(C(F)(F)F)c1 [ostarine] | 125 ± 22 | 552 ± 118 | 1080 ± 105 | 4140 ± 448 | 5040 ± 1300 | 20600 ± 3650 | 35 ± 7 | 156 ± 144 | 332 ± 40 | 36 ± 12 | 1480 ± 429 | 66 ± 36 | increased uterine weight to length ratio above estrogen deficient OVX controls in a dose dependent manner | significantly (P<0.01) increased above sham levels | increased clitoral gland weight | significantly increased clitoral weight | Neither Compound 102 nor ostarine affected | did not affect clitoral weight | significantly (P<0.01) less than sham operated controls | 10 | systemic exposure compared with Compound 102 ([1]; equal doses): significantly higher exposure; alkaline phosphatase activity from isolated tibiae ([2]; OVX rats, 12 weeks): significantly increased; whole femur bending stiffness [2, 14]: slightly more effectively than Compound 102; whole femur bending strength [2, 14]: slightly less effectively than Compound 102; cortical bone area ([2]; OVX rats, 12 weeks, histomorphometry): increased cortical bone area; serum osteocalcin ([2]; OVX rats, 12 weeks, versus vehicle-treated OVX controls): significantly suppressed; body weight gain from baseline compared to vehicle ([2]; OVX rats, 12 weeks, Compound 102/ostarine 0.03, 0.3, 3 mg/kg/day PO, testosterone propionate 1 mg/kg/day s.c.): significantly increased weight gain compared to vehicle at the mid and high dose levels; also recorded: at the low dose there was no significant difference from vehicle; inguinal fat pad weight ([2]; OVX rats, 12 weeks, any dose, estradiol 0.1, testosterone propionate 1 mg/kg/day s.c.): neither Compound 102 nor ostarine significantly affected inguinal fat pad weight at any dose; mean change in body weight ([2]; OVX rats): +65 grams; clitoral weight, activity versus testosterone ([2]; OVX rats): not significantly different from testosterone; clitoral gland weight versus sham ([2]; OVX rats): only slightly above the sham level; also recorded: statistically significant (P<0.05)
